This is an account of results in ChEMBL document CHEMBL3352536, “Antiparasitic compounds may potentially treat malaria and other parasitic diseases” (ACS Med Chem Lett, 2014).

One experiment relates to Plasmodium yoelii. The experiment in a line: Antiplasmodial activity against Plasmodium yoelii infected in liver cells assessed as inhibition of proliferation. The class given is functional, organism-based.
A further experiment deals with Plasmodium falciparum. The experiment in a line: Antiplasmodial activity against Plasmodium falciparum infected in human blood cells assessed as inhibition of proliferation. In kind it is functional, organism-based.

As for `CN(C(=O)c1cn2c(-c3ccc(C(N)=O)cc3)cnc2cn1)c1ccc(F)cc1`, the figures for the half-maximal effective concentration (EC50) in the experiment on Plasmodium yoelii and in the experiment on Plasmodium falciparum were 56 nM and 74 nM, respectively.
`CN(Cc1cn2c(-c3ccc(C(N)=O)cc3)cnc2cn1)c1ccc(F)cc1`: the concentration for a half-maximal effect (EC50) in the experiment on Plasmodium yoelii stood at 7 nM; in the experiment on Plasmodium falciparum, 30 nM.
Taken in the same sequence, the figures for `CN(Cc1cn2c(-c3ccc(C(N)=O)cc3)cnc2cn1)c1ccc(Cl)cc1` were 11 nM and 9 nM.
Take `Cc1ccc(N(C)C(=O)c2cn3c(-c4ccc(C(F)(F)F)cc4)cnc3cn2)nc1`: the concentration giving a half-maximal response (EC50) in the experiment on Plasmodium yoelii is 1110 nM; in the experiment on Plasmodium falciparum, 199 nM.

In general, EC50 refers to the concentration at which the effect is half-maximal.
